We go through 18 compounds from patent US10689398B2, “OXA-Diazaspiro compounds having activity against pain” (ESTEVE PHARMACEUTICALS, S.A., priority 2015, dated 2020).

A word on the Ki: it is the dissociation constant of the complex between target and ligand, obtained from inhibition or displacement. Higher therefore signals lower affinity.

The target in the test is human σ1 receptor (Homo sapiens (Human), UniProt Q99720). The test can be described thus: Human σ1 receptor radioligand assay. In kind it is binding. The note with it: transfected HEK-293 membranes, [3H](+)-pentazocine radioligand. As for the experimental part: Human σ1 Receptor Radioligand Assay
Chain of human σ1 receptor (Q99720 whole entry): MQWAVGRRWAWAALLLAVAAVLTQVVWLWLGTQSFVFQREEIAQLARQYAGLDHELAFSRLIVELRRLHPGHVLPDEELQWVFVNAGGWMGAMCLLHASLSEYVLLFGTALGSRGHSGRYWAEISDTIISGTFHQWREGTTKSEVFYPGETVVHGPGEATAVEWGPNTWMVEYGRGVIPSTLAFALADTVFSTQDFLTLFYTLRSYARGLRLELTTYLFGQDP
To investigate binding properties of test compounds to human σ1 receptor, transfected HEK-293 membranes and [^3H](+)-pentazocine (Perkin Elmer, NET-1056), as the radioligand, were used. The assay was carried out with 7 μg of membrane suspension, 5 nM of [^3H](+)-pentazocine in either absence or presence of either buffer or 10 μM Haloperidol for total and non-specific binding, respectively. Binding buffer contained Tris-HCl 50 mM at pH 8. Plates were incubated at 37° C. for 120 minutes. After the incubation period, the reaction mix was then transferred to MultiScreen HTS, FC plates (Millipore), filtered and plates were washed 3 times with ice-cold 10 mM Tris-HCL (pH7.4). Filters were dried and counted at approximately 40% efficiency in a MicroBeta scintillation counter (Perkin-Elmer) using EcoScint liquid scintillation cocktail

For the compound `c1ccc(CN2CCCC3(C2)CN(Cc2ccccc2)CC2(CC2)O3)cc1` (stereo not drawn) [Example 78, 7,12-dibenzyl-4-oxa-7,12-diazadispiro[2.1.5.3]tridecane], the Ki is under 100 nM.
`c1ccc(CCN2CCCC3(C2)CN(Cc2ccccc2)CC2(CC2)O3)cc1` (stereo not drawn) [Example 79, 12-benzyl-7-phenethyl-4-oxa-7,12-diazadispiro[2.1.5.3]tridecane]: the Ki is under 100 nM.
As for `CC(C)CCN1CCCC2(C1)CN(Cc1ccccc1)CC1(CC1)O2` (stereo not drawn) [Example 80, 12-benzyl-7-isopentyl-4-oxa-7,12-diazadispiro[2.1.5.3]tridecane], the figure is under 100 nM; as for `CC(C)CN1CCCC2(C1)CN(Cc1ccccc1)CC1(CC1)O2` (stereo not drawn) [Example 81, 12-benzyl-7-isobutyl-4-oxa-7,12-diazadispiro[2.1.5.3]tridecane], under 100 nM; as for `c1ccc(CN2CCCC3(CC2)CN(Cc2ccccc2)CC2(CC2)O3)cc1` (stereo not drawn) [Example 82, 8,13-dibenzyl-4-oxa-8,13-diazadispiro[2.1.6.3]tetradecane], under 100 nM.
In the case of `c1ccc(CCN2CCCC3(CC2)CN(Cc2ccccc2)CC2(CC2)O3)cc1` (stereo not drawn) [Example 83, 13-benzyl-8-phenethyl-4-oxa-8,13-diazadispiro[2.1.6.3]tetradecane], the inhibition constant Ki was under 100 nM.
Regarding `CC(C)CCN1CCCC2(CC1)CN(Cc1ccccc1)CC1(CC1)O2` (stereo not drawn) [Example 84, 13-benzyl-8-isopentyl-4-oxa-8,13-diazadispiro[2.1.6.3]tetradecane], the Ki was under 100 nM.
For `CC(C)CN1CCCC2(CC1)CN(Cc1ccccc1)CC1(CC1)O2` (stereo not drawn) [Example 85, 13-benzyl-8-isobutyl-4-oxa-8,13-diazadispiro[2.1.6.3]tetradecane] the value was under 100 nM; for `CCN1CC(C)(C)OC2(CCCN(Cc3ccccc3)CC2)C1` (stereo not drawn) [Example 86, 9-benzyl-4-ethyl-2,2-dimethyl-1-oxa-4,9-diazaspiro[5.6]dodecane], under 100 nM; for `CCN1CC(C)(C)OC2(CCCN(CCc3ccccc3)CC2)C1` (stereo not drawn) [Example 87, 4-ethyl-2,2-dimethyl-9-phenethyl-1-oxa-4,9-diazaspiro[5.6]dodecane], under 100 nM.
For the compound `CCN1CC(C)(C)OC2(CCCN(CCC(C)C)CC2)C1` (stereo not drawn) [Example 88, 4-ethyl-9-isopentyl-2,2-dimethyl-1-oxa-4,9-diazaspiro[5.6]dodecane], the Ki was under 100 nM.
In the case of `CCN1CC(C)(C)OC2(CCCN(CC(C)C)CC2)C1` (stereo not drawn) [Example 89, 4-ethyl-9-isobutyl-2,2-dimethyl-1-oxa-4,9-diazaspiro[5.6]dodecane], the inhibition constant Ki is under 100 nM.
`c1ccc(CCN2CC3(CN(Cc4ccccc4)CC4(CC4)O3)C2)cc1` [Example 90, 10-benzyl-7-phenethyl-4-oxa-7,10-diazadispiro[2.1.3.3]undecane] yielded a Ki of under 100 nM.
For `O=C(c1ccccc1)N1CC2(CC2)OC2(CN(CCc3ccccc3)C2)C1` [Example 91, (7-Phenethyl-4-oxa-7,10-diazadispiro[2.1.3.3]undecan-10-yl)(phenyl)methanone] the value was at least 500 nM.
For the compound `CCN1C[C@]2(CCCN(Cc3ccccc3)CC2)OC2(CC2)C1=O` [Example 92, (R)-8-benzyl-13-ethyl-4-oxa-8,13-diazadispiro[2.1.6.3]tetradecan-14-one], the Ki is under 100 nM.
`CCN1C[C@@]2(CCCN(Cc3ccccc3)CC2)OC2(CC2)C1=O` [Example 93, (S)-8-benzyl-13-ethyl-4-oxa-8,13-diazadispiro[2.1.6.3]tetradecan-14-one] came in with an inhibition constant (Ki) of under 100 nM.
As for `CC1(C)CN(C(=O)c2ccccc2)C[C@]2(CCCN(CCc3ccccc3)CC2)O1` [Example 94, (R)-(2,2-dimethyl-9-phenethyl-1-oxa-4,9-diazaspiro[5.6]dodecan-4-yl)(phenyl)methanone], the Ki is under 500 nM.
In turn, `CC1(C)CN(C(=O)c2ccccc2)C[C@@]2(CCCN(CCc3ccccc3)CC2)O1` [Example 95, (S)-(2,2-dimethyl-9-phenethyl-1-oxa-4,9-diazaspiro[5.6]dodecan-4-yl)(phenyl)methanone] displayed a Ki of under 500 nM.
